# Data: patent US5840936A, “Aminosterol compounds useful as inhibitors of the sodium/proton exchanger (NHE)” (priority 1995, dated 1998)
# “Also recorded” adds a separate entry of the source.
# Key:
# [1] = test system: chick embryo vitelline capillaries; test: Chick embryo vitelline capillary regression assay; type: in vivo; parameters: key to Vitelline capillary regression: +: Vascular reactivity; 0: No vascular reactivity; +/-: Equivocal reactivity
# Experimental: Using the chick embryo vitelline capillaries assay, compounds were tested for their ability to induce capillary regression. Each compound was applied in 0.1 ml of 15% Ficol 400 and PBS onto the embryo, and vascular regression was assessed after 60 minutes.
# The 3-day chick embryo consists of an embryonic disc from which numerous vessels emerge and return, forming a "FIG. 8"-shaped structure--the embryo in the center with vascular loops extending outward over both poles. […] Following a lag period of around 15 minutes, the constriction of continuity between capillary and secondary vessels, generally on the "venous" side, was observed. Continued pulsatile blood flow progressed, resulting in a "swelling" of the blind tube, followed by a pinching off of the remaining connection and formation of an enclosed vascular sac resembling a "blood island." This process progressed until only the largest vessels remained intact.
# [2] = test system: Xenopus tadpoles, stage 59-60; test: Xenopus tadpole assay; conditions: for Pharmacologic similarity in tadpole assay: in vivo; for Tadpole assay, observed effects: 10 μg/ml
# [3] = biological target: NHE2; conditions: cited from earlier work
# [4] = biological target: NHE3; conditions: cited from earlier work
# [5] = biological target: NHE1; conditions: cited from earlier work
# [6] = test system: HM; test: HM MTT assay; type: cell-based; conditions: Table II; read-out: HM MTT assay, Minimum Effective Concentration
# [7] = Fasting blood glucose in mice; type: in vivo, male CD-1 mice
# Experimental: To study the effect of steroid administrator or the NHE responsible for secretion of insulin, several of the aminosterols from shark liver were administered to fasting mice. Male CD-1 mice were assigned to one of four treatment groups. Whole blood glucose was tested using glucometer (Lifescan Glucometer II and One Touch test strips). Statistical analysis was via one-way analysis of variance (ANOVA) followed by subsequent Bonferonni's t-test.
# [8] = test system: L1210 lymphoblastic leukemia; test: Mouse model of L1210 leukemia; conditions: mouse, in vivo
# Excerpt: C57B mice were inoculated with L1210 lymphoblastic leukemia cells at an inoculum that causes leukemia in 100% of animals.
smiles,measurement,setting,value
C[C@H](CCC(=O)O)[C@H]1CC[C@H]2[C@@H]3[C@H](O)C[C@@H]4C[C@H](NCCN)CC[C@]4(C)[C@H]3CC[C@]12C [Compound 414],Vitelline capillary regression,[1]; 1 μg applied,0
same,Pharmacologic similarity in tadpole assay,[2],potencies comparable to that of Fraction 1
COC(=O)CC[C@@H](C)[C@H]1CC[C@H]2[C@@H]3C[C@@H](O)[C@H]4C[C@H](NCCCNCCCCNCCCN)CC[C@]4(C)[C@H]3CC[C@]12C [Compound 465],Pharmacologic similarity in tadpole assay,[2],pharmacologic activity similar to that seen for FX 3
CC(C)CCC[C@@H](C)[C@H]1CC[C@H]2[C@@H]3[C@H](O)C[C@H]4C[C@@H](N)CC[C@]4(C)[C@H]3CC[C@]12C [Compound 364],Vitelline capillary regression,[1]; 0.001 μg applied,0
same,Vitelline capillary regression,[1]; 0.01 μg applied,0
same,Vitelline capillary regression,[1]; 0.1 μg applied,0
same,Vitelline capillary regression,[1]; 1 μg applied,+
same,Vitelline capillary regression,[1]; 10 μg applied,+
same,"Chick embryo diss. assay, Minimum Effective Concentration",[1]; Table II,1 µg
COC(=O)CC[C@@H](C)[C@H]1CC[C@H]2[C@@H]3C[C@@H](O)[C@H]4C[C@@H](NCCCNCCCCNCCCN)CC[C@]4(C)[C@H]3CC[C@]12C [Compound 466],Pharmacologic similarity in tadpole assay,[2],pharmacologic activity similar to that seen for FX 3
"CN(C)c1nc(N)c(C(=O)N=C(N)N)nc1Cl [DMA, dimethylamiloride]",Ki,[3],0.7 µM
same,Ki,[4],11 µM
same,Ki,[5],0.1 µM
COC(=O)CC[C@@H](C)[C@H]1CC[C@H]2[C@@H]3C[C@@H](O)[C@H]4C[C@H](NCCN)CC[C@]4(C)[C@H]3CC[C@]12C [Compound 431],Pharmacologic similarity in tadpole assay,[2],functionally similar to compound 1437
COC(=O)CC[C@@H](C)[C@H]1CC[C@H]2[C@@H]3CC[C@H]4C[C@H](NCCCNCCCCNCCCN)CC[C@]4(C)[C@H]3CC[C@]12C [Compound 458],minimal effective concentration,[6],6.8 µg/mL
same,Pharmacologic similarity in tadpole assay,[2],pharmacologic activity similar to that seen for FX 3
COC(=O)CC[C@@H](C)[C@H]1CC[C@H]2[C@@H]3CC[C@H]4C[C@@H](NCCCNCCCCNCCCN)CC[C@]4(C)[C@H]3CC[C@]12C [Compound 459],minimal effective concentration,[6],5 µg/mL
same,Pharmacologic similarity in tadpole assay,[2],pharmacologic activity similar to that seen for FX 3
CC(C)CCC[C@@H](C)[C@H]1CC[C@H]2[C@@H]3[C@H](O)C[C@H]4C[C@@H](NCCCNCCCCN)CC[C@]4(C)[C@H]3CC[C@]12C [Compound 371],Vitelline capillary regression,[1]; 0.001 μg applied,0
same,Vitelline capillary regression,[1]; 0.01 μg applied,0
same,Vitelline capillary regression,[1]; 0.1 μg applied,0
same,Vitelline capillary regression,[1]; 1 μg applied,+/-
same,Vitelline capillary regression,[1]; 10 μg applied,+
same,Pharmacologic similarity in tadpole assay,[2],effects like those produced by compound 1436
"CC(C)C(CO)(CC[C@@H](C)[C@H]1CC[C@H]2[C@@H]3[C@H](O)C[C@H]4C[C@@H](NCCCNCCCCN)CC[C@]4(C)[C@H]3CC[C@]12C)OS(=O)(=O)O (single isomer, unassigned) [Compound 1437]","Tadpole assay, observed effects",[2],"Epithelium covering the embryonic portions of the animal, such as the tail and antennae, began to slough off in sheets; also recorded: the larval skin was observed to shed off in a sheet"
same,Hyperglycemia,"[7]; i.v., 1436 in D5W, 1437 in water",caused hyperglycemia in mice
same,Fasting Blood Glucose Mean ± SEM,"[7]; total dose 20 mg/kg i.v. (2 × 10 mg/kg), 30 min. after 2d dose",82 ± 15.3 mg/dL
"CC(COS(=O)(=O)O)C(=O)CC[C@@H](C)[C@H]1CC[C@H]2[C@@H]3[C@H](O)C[C@H]4C[C@@H](NCCCNCCCCN)CC[C@]4(C)[C@H]3CC[C@]12C (single isomer, unassigned) [Compound 1360]",Vitelline capillary regression,[1]; 1 μg applied,0
same,Effect on chick embryo vessels,[1]; 3- to 5-day chick embryo,"the blood circulating through the embryonic vessels exhibited a brighter red color, reflecting a higher degree of oxygenation"
same,"Tadpole assay, observed effects",[2],Swelling and lysis of certain erythrocytes occurred; also recorded: extensive vasocclusion occurred within 60 minutes throughout the tail
"CCCN(C)c1nc(N)c(C(=O)N=C(N)N)nc1Cl [MPA, methylpropylamiloride]",Ki,[3],5 µM
same,Ki,[4],10 µM
same,Ki,[5],0.08 µM
CC(C)CCC[C@@H](C)[C@H]1CC[C@H]2[C@@H]3[C@H](O)C[C@H]4C[C@H](NCCCNCCCCN)CC[C@]4(C)[C@H]3CC[C@]12C [Compound 370],Pharmacologic similarity in tadpole assay,[2],pharmacologic activity similar to that seen for FX 3
C[C@H](CCC(=O)O)[C@H]1CC[C@H]2[C@@H]3[C@H](O)C[C@H]4C[C@H](NCCCNCCCCN)CC[C@]4(C)[C@H]3CC[C@]12C [Compound 382],Vitelline capillary regression,[1]; 0.001 μg applied,0
same,Vitelline capillary regression,[1]; 0.01 μg applied,0
same,Vitelline capillary regression,[1]; 0.1 μg applied,0
same,Vitelline capillary regression,[1]; 1 μg applied,+
same,Vitelline capillary regression,[1]; 10 μg applied,+
N=C(N)NC(=O)c1nc(Cl)c(N)nc1N [Amiloride],Ki,[4],100 µM
C[C@H](CCC(=O)O)[C@H]1CC[C@H]2[C@@H]3CC[C@H]4C[C@H](NCCCNCCCCN)CC[C@]4(C)[C@H]3CC[C@]12C [Compound 318],Vitelline capillary regression,[1]; 1 μg applied,0
COC(=O)CC[C@@H](C)[C@H]1CC[C@H]2[C@@H]3[C@H](O)C[C@@H]4C[C@@H](NCCCNCCCCNCCCN)CC[C@]4(C)[C@H]3CC[C@]12C [Compound 411],Vitelline capillary regression,[1]; 0.001 μg applied,0
same,Vitelline capillary regression,[1]; 0.01 μg applied,0
same,Vitelline capillary regression,[1]; 0.1 μg applied,0
same,Vitelline capillary regression,[1]; 1 μg applied,+/-
C[C@H](CCC(=O)O)[C@H]1CC[C@H]2[C@@H]3[C@H](O)C[C@@H]4C[C@@H](NCCN)CC[C@]4(C)[C@H]3CC[C@]12C [Compound 415],Vitelline capillary regression,[1]; 0.001 μg applied,0
same,Vitelline capillary regression,[1]; 0.01 μg applied,+
same,Vitelline capillary regression,[1]; 0.1 μg applied,+
same,Vitelline capillary regression,[1]; 1 μg applied,+
C[C@H](CCC(=O)O)[C@H]1CC[C@H]2[C@@H]3[C@H](O)C[C@@H]4C[C@@H](NCCCNCCCCNCCCN)CC[C@]4(C)[C@H]3CC[C@]12C [Compound 413],Vitelline capillary regression,[1]; 1 μg applied,0
same,Pharmacologic similarity in tadpole assay,[2],effects like those produced by compound 1436
COC(=O)CC[C@@H](C)[C@H]1CC[C@H]2[C@@H]3C[C@@H](O)[C@H]4C[C@@H](NCCN)CC[C@]4(C)[C@H]3CC[C@]12C [Compound 432],Pharmacologic similarity in tadpole assay,[2],functionally similar to compound 1437
C[C@H](CCC(=O)O)[C@H]1CC[C@H]2[C@@H]3C[C@@H](O)[C@H]4C[C@@H](NCCN)CC[C@]4(C)[C@H]3CC[C@]12C [Compound 433],Pharmacologic similarity in tadpole assay,[2],functionally similar to compound 1437
"N.N.[Cl][Pt][Cl] [Cisplatin, reference compound]",Hematological profile,[8],profound anemia by day 28
COC(=O)CC[C@@H](C)[C@H]1CC[C@H]2[C@@H]3[C@H](O)C[C@@H]4C[C@@H](NCCN)CC[C@]4(C)[C@H]3CC[C@]12C [Compound 409],Vitelline capillary regression,[1]; 1 μg applied,0
same,Pharmacologic similarity in tadpole assay,[2],functionally similar to compound 1437
COC(=O)CC[C@@H](C)[C@H]1CC[C@H]2[C@@H]3CC[C@@H]4C[C@H](NCCN)CC[C@]4(C)[C@H]3C[C@H](O)[C@]12C [Compound 416],minimal effective concentration,[6],2.4 µg/mL
same,Pharmacologic similarity in tadpole assay,[2],functionally similar to compound 1437
COC(=O)CC[C@@H](C)[C@H]1CC[C@H]2[C@@H]3[C@H](O)C[C@@H]4C[C@H](NCCN)CC[C@]4(C)[C@H]3CC[C@]12C [Compound 410],Vitelline capillary regression,[1]; 0.001 μg applied,0
same,Vitelline capillary regression,[1]; 0.01 μg applied,+/-
same,Vitelline capillary regression,[1]; 0.1 μg applied,+/-
same,Vitelline capillary regression,[1]; 1 μg applied,+
same,minimal effective concentration,[6],2.6 µg/mL
same,Pharmacologic similarity in tadpole assay,[2],functionally similar to compound 1437
C[C@H](CCC(=O)O)[C@H]1CC[C@H]2[C@@H]3[C@H](O)C[C@H]4C[C@@H](NCCCNCCCCN)CC[C@]4(C)[C@H]3CC[C@]12C [Compound 381],Vitelline capillary regression,[1]; 1 μg applied,0
C[C@H](CCC(=O)O)[C@H]1CC[C@H]2[C@@H]3[C@H](O)C[C@@H]4C[C@H](NCCCNCCCCNCCCN)CC[C@]4(C)[C@H]3CC[C@]12C [Compound 412],Vitelline capillary regression,[1]; 0.001 μg applied,0
same,Vitelline capillary regression,[1]; 0.01 μg applied,0
same,Vitelline capillary regression,[1]; 0.1 μg applied,0
same,Vitelline capillary regression,[1]; 1 μg applied,+
same,minimal effective concentration,[6],18.1 µg/mL
same,Pharmacologic similarity in tadpole assay,[2],pharmacologic activity similar to that seen for FX 3
CC(C)CCC[C@@H](C)[C@H]1CC[C@H]2[C@@H]3[C@H](O)C[C@H]4C[C@H](N)CC[C@]4(C)[C@H]3CC[C@]12C [Compound 1363],Pharmacologic similarity in tadpole assay,[2],potencies comparable to that of Fraction 1
COC(=O)CC[C@@H](C)[C@H]1CC[C@H]2[C@@H]3[C@H](O)C[C@H]4C[C@@H](NCCCNCCCCNCCCN)CC[C@]4(C)[C@H]3CC[C@]12C [Compound 396],Vitelline capillary regression,[1]; 0.001 μg applied,0
same,Vitelline capillary regression,[1]; 0.01 μg applied,0
same,Vitelline capillary regression,[1]; 0.1 μg applied,0
same,Vitelline capillary regression,[1]; 1 μg applied,+
CC(C)CCC[C@@H](C)[C@H]1CC[C@H]2[C@@H]3CC[C@H]4C[C@@H](NCCCNCCCCN)CC[C@]4(C)[C@H]3CC[C@]12C [Compound 303],Vitelline capillary regression,[1]; 1 μg applied,0
